The results in this text go back to BindingDB's records for doi:10.1016/S0960-894X(01)80909-4 (1993).

Experiment [1] concerns the target Diamine oxidase (Sus scrofa). The experiment in a line: Tested for ability to competitively inhibit hog kidney diamine oxidase (DAO) in a spectrometric assay.
Experiment [2] concerns the target Diamine oxidase (Sus scrofa). The description is as above. This is another data set of the same source.

Molecules are shown by their SMILES.

As to `NCC#Cc1cnc[nH]1` [3-(1H-Imidazol-4-yl)-prop-2-ynylamine], in experiment [1], the affinity, expressed as Ki, was 1700 nM.

Turning to `C=C(CN)c1cnc[nH]1` [2-(1H-Imidazol-4-yl)-allylamine], the Ki in experiment [1] came to 7100 nM.

Consider `NCC=Cc1cnc[nH]1`, for which the inhibition constant Ki was 170 nM in experiment [1] and 200 nM in experiment [2].
